The source of these data is patent US9493477B2, “Compositions comprising enzyme-cleavable ketone-modified opioid prodrugs and optional inhibitors thereof” (priority 2009, dated 2016).

Read-outs that look alike come from different tables or passages of the source.

Data set [1] can be described thus: In vivo tolerability of Compound KC-3 IV in rats. More on the design: species or system rat. The following applies: IV KC-3 71 mg/kg (97 μmol/kg), 4 rats dosed, observed up to 24 hours. Here is the method:
Male naïve Sprague-Dawley rats, 4 per dose, were used in the study. Rats were weighed, and then placed under a heat lamp for 15-20 minutes to dilate the lateral tail veins. […] Before dosing, rats were placed in Broome restrainers and the drug was introduced into one of the tail veins using a syringe and needle. […] Blood samples were collected 5 minutes post-dose via the saphenous vein. The rats were observed up to 24 hours.

The target of data set [2] is T1, trypsin from bovine pancreas (Bos taurus, UniProt P00760).
T1 construct: purchased Sigma-Aldrich T8003; host or cells: bovine pancreas
T1 sequence (P00760 24-246): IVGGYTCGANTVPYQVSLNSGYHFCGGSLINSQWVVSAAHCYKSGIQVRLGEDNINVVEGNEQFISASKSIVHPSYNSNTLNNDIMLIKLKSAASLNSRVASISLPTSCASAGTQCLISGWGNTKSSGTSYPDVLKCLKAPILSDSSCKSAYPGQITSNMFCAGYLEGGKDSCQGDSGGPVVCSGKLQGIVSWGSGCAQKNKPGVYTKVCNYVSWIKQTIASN
The data set is described as follows: In vitro trypsin-mediated release of drug from prodrug, without or with trypsin inhibitor Compound 109. The format is biochemical.
Protocol: The reactions were conducted at 37° C. for 24 hr. Samples were collected at specified time points, transferred into 0.5% formic acid in acetonitrile to stop trypsin activity and stored at less than −70° C. until analysis by LC-MS/MS.
Other reaction and sample treatment conditions were as described above.

Data set [3] is described as follows: Pharmacokinetics following PO administration to rats (drug released into plasma from prodrug, or oxycodone). The format is in vivo, rat. As to conditions: for oxycodone plasma concentrations compared to administration of oxycodone: PO prodrug versus PO oxycodone 10 mg/kg (Example 15).
Protocol: At specified time points, blood samples were drawn, harvested for plasma via centrifugation at 5,400 rpm at 4° C. for 5 min, and 100 microliters (μl) plasma transferred from each sample into a fresh tube containing 1 μl of formic acid. The tubes were vortexed for 5-10 seconds, immediately placed in dry ice and then stored until analysis by high performance liquid chromatography/mass spectrometry (HPLC/MS).
At specified time points, blood samples were drawn, harvested for plasma via centrifugation at 5,400 rpm at 4° C. for 5 min, and 100 microliters (μl) plasma transferred from each sample into a fresh tube containing 2 μl of 50% formic acid. The tubes were vortexed for 5-10 seconds, immediately placed in dry ice and then stored in −80° C. freezer until analysis by HPLC/MS.
At specified time points, blood samples were drawn, harvested for plasma via centrifugation at 5,400 rpm at 4° C. for 5 min, and 100 μl plasma transferred from each sample into a fresh tube containing 2 μl of 50% formic acid. The tubes were vortexed for 5-10 seconds, immediately placed in dry ice and then stored in −80° C. freezer until analysis by HPLC/MS.
A short description of data set [4]: In vitro stability of prodrug to household chemicals and enzyme preparations. The format is physicochemical. As to conditions: vodka, baking soda, WINDEX, vinegar (RT or 80° C.) and GNC Super Digestive, tenderizer, subtilisn (RT), 1 or 24 hr. How it is done:
Samples were incubated as described and aliquots removed at 1 hr and 24 hr and stabilized by adding each to a solution of 50% or 100% of 85% phosphoric acid solution to achieve a final pH of less than or equal to pH 4. The stabilized aliquots were then diluted 4- to 6-fold with water, vortex-mixed and applied to HPLC.
Samples were incubated as described. Aliquots were removed at 1 hr and 24 hr and stabilized by adding each to a solution of 50% or 100% of 85% phosphoric acid solution to achieve a final pH of less than or equal to pH 4. The stabilized aliquots were then diluted 4- to 6-fold with water, vortex-mixed and applied to HPLC.

The target of data set [5] is T2, human μ-opioid receptor (Homo sapiens, UniProt P35372). The data set is described as follows: In vitro human μ-opioid receptor binding assay ([3H]DAMGO, recombinant HEK-293 cells). As to conditions: from Table 8.
A short description of data set [6]: Pharmacokinetics following IV administration of prodrug to rats. In kind it is in vivo, rat.
In data set [7] the target is T2, human μ-opioid receptor. In kind it is cell-based. More on the design: expressed in transfected cells; host or cells: CHO. The following applies: Experiment 3; EC50 ratio, oxycodone or hydrocodone to its prodrug.
Protocol: The control reaction included 1 μM DAMGO. The reaction mixtures were incubated at 37° C. for 10 min, and the reaction product was cyclic AMP (cAMP). The samples were submitted to homogeneous time resolved fluorescence (HTRF®). EC50 values (concentration producing a half-maximal specific response) were determined by non-linear regression fit using the Hillplot software.
Setting [8] is: 241 BAEE U trypsin/mL, no inhibitor.
Setting [9] is: 4815 BAEE U trypsin/mL, no inhibitor.
Where [10] appears, read: rats, IV Compound KC-2 10 mg/kg or equimolar oxycodone, 15 minutes.

T2 sequence (P35372 whole entry): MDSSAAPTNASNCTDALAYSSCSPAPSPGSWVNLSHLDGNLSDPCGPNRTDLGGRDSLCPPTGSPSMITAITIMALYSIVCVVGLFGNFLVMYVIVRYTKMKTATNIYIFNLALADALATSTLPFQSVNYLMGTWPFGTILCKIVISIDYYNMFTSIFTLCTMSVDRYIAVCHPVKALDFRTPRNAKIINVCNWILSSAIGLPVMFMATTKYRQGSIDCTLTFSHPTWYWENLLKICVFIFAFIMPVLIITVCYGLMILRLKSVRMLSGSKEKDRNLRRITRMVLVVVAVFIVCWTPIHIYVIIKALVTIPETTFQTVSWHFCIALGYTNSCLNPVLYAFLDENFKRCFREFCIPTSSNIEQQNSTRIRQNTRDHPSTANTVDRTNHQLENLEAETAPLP

Take `COc1ccc2c3c1O[C@H]1C(OC(=O)N(C)CCNC(=O)[C@H](CCCNC(=N)N)NC(=O)CC(=O)O)=CC[C@@]4(O)[C@@H](C2)N(C)CC[C@]314` [Compound KC-3, N—{(S)-4-guanidino-1-[2-(methyl-[(5R,9R,13S,14S)-4,5a-epoxy-6,7-didehydro-14-hydroxy-3-methoxy-17-methylmorphinan-6-oxy]carbonyl-amino)-ethylcarbamoyl]-butyl}-malonamic acid]: in data set [1], the Clinical observations is 2 normal and 2 with ataxia which. Moreover, the “relative plasma/CSF partitioning coefficient to oxycodone (fold less CSF penetrant than oxycodone)” value (Table 15, 1,737/4.8) is listed as “about 364 fold”. Moreover, the “Rate of oxycodone formation” value in data set [2] (setting [8]) is 0.0684 ± 0.0009 umol/h/ BAEE U. In data set [3] (PO 1.4 to 46 mg/kg, Table 11, FIG. 11), the “plasma concentrations of oxycodone versus Compound KC-3 dose” value was “increase proportionally”.
As for `COc1ccc2c3c1O[C@H]1C(OC(=O)N(C)C[C@H](NC(=O)[C@H](CCCNC(=N)N)NC(C)=O)C(=O)N(C)CC(=O)O)=CC[C@@]4(O)[C@@H](C2)N(C)CC[C@]314` [Compound KC-6], the “relative plasma/CSF partitioning coefficient to oxycodone (fold less CSF penetrant than oxycodone)” value (Table 25, 815/4.8) is reported as “about 171 fold”. Also, the “Rate of oxycodone formation” value in data set [2] (setting [8]) is reported as 0.0118 ± 0.0042 umol/h/ BAEE U; in data set [2] (setting [9]), 0.00571 ± 0.0002 umol/h/ BAEE U. The “oxycodone plasma concentrations compared to administration of oxycodone” value in data set [3] is “suppressed Cmax and AUC and delayed Tmax”.
As for `COc1ccc2c3c1O[C@H]1C(OC(=O)N(C)CCNC(=O)[C@H](CCCNC(=N)N)NC(C)=O)=CC[C@@]4(O)C(C2)N(C)CC[C@]314` [Compound KC-2, Oxycodone 6-(N-methyl-N-(2-N′-acetylarginylamino)) ethylcarbamate], the conversion to oxycodone entry in data set [4] is “less than 10%”. In addition, the “affinity for the μ-opioid receptor, fold less than that of oxycodone” value at human μ-opioid receptor [5] is “about 2 fold”. Moreover, the “Cmax of Compound KC-2 in plasma” value in data set [6] (IV Compound KC-2 2 mg/kg, average ± sd, 4 rats) amounted to 2680 ± 755 ng/mL. In addition, for the setting “Table 10, 439/3.8”, the “relative plasma/CSF partitioning coefficient to oxycodone (fold less CSF penetrant than oxycodone)” value is on record as “about 116 fold”. Further, the “Compound conc. in Plasma” value (male, Sprague Dawley, rat, in vivo) was 27,200 ng/mL. Under setting [10], the “Compound conc. in CSF” value came out at 61.9 ng/mL and the Plasma/CSF partitioning coefficient is given as 439. Further, the “Rate of oxycodone formation” value in data set [2] (no trypsin inhibitor, 0.761 mM prodrug, 0.0228 mg/mL trypsin, 37° C.) turned out to be 37.4 ± 0.9 umols/h/umol trypsin. The “plasma concentrations of oxycodone versus Compound KC-2 dose” value in data set [3] (PO 1.3 to 50 mg/kg, Table 6, FIG. 9) was “increase proportionally”. In addition, the “oxycodone plasma concentrations compared to administration of oxycodone” value in data set [3] was “suppressed Cmax and delayed Tmax”.
Turning to `COc1ccc2c3c1O[C@H]1C(OC(=O)N(CCCCCC(=O)O)CCNC(=O)[C@H](CCCNC(=N)N)NC(C)=O)=CC[C@@]4(O)[C@@H](C2)N(C)CC[C@]314` [Compound KC-5, 6-{[2-(2-Acetylamino-5-guanidino-pentanoylamino)-ethyl]-[(5R,9R,13S,14S)-4,5a-epoxy-6,7-didehydro-14-hydroxy-3-methoxy-17-methylmorphinan-6-oxy]-1-enyloxycarbonyl-amino}-hexanoic acid], under “Table 22, 1,508/4.8”, the “relative plasma/CSF partitioning coefficient to oxycodone (fold less CSF penetrant than oxycodone)” value is recorded as “about 316 fold”. Moreover, in data set [2] (setting [8]), the “Rate of oxycodone formation” value worked out at 0.135 ± 0.005 umol/h/ BAEE U. The “oxycodone plasma concentrations compared to administration of oxycodone” value in data set [3] was “suppressed Cmax and AUC and delayed Tmax”.
Turning to `COc1ccc2c3c1OC1C(OC(=O)N(C)CCNC(=O)C(CCCNC(=N)N)NC(=O)CC(=O)O)=CCC4C(C2)N(C)CCC314` [Compound KC-4, N—((S)-1-{2-[(Dihydrocodein-6-enyloxycarbonyl)-methylamino]-ethylcarbamoyl-4-guanidino}-butyl)-malonamic acid], the Drug/prodrug relative potency at human μ-opioid receptor [7] is listed as 15. In addition, in data set [6] (IV KC-4 2 mg/kg ([…])), the “KC-4 Cmax ± sd” value came to 3960 ± 570 ng/mL. The “Rate of hydrocodone formation” value in data set [2] (setting [8]) was 0.0911 ± 0.015 umol/h/ BAEE U; in data set [2] (setting [9]), 0.0137 ± 0.0014 umol/h/ BAEE U.
